Results: ChEMBL document CHEMBL1133561, “A novel class of potent 3-isoxazolol GABA(A) antagonists: design, synthesis, and pharmacology” (J Med Chem, 2000)

What was measured:
[1] = target: GABA-A receptor; anion channel; experiment: In vitro inhibition of [3H]muscimol to rat brain synaptic membranes; type: cell membranes, Membrane
[2] = target: GABA-A receptor; anion channel; experiment: Inhibition of Gamma-aminobutyric acid A (GABA-A) receptor in vitro by whole-cell patch-clamp recording in cultured cerebral cortical neurones; type: functional, Rattus norvegicus
[3] = target: GABA-A receptor; anion channel; experiment: Inhibition against Gamma-aminobutyric acid A (GABA-A) receptor; type: protein-complex assay, Rattus norvegicus

Row | Ki [1] [µM] | IC50 [2] [µM] | Structure (SMILES) | IC50 [3] [µM]
1 | 0.49 |  | Oc1noc(C2CCNCC2)c1CCc1ccc2ccccc2c1 | 
2 | 3.8 | 4 | Oc1noc(C2CCNCC2)c1Cc1ccccc1 | 
3 | 0.049 |  | Oc1noc(C2CCNCC2)c1Cc1ccc2ccccc2c1 | 
4 | 5.9 |  | Oc1noc(C2CCNCC2)c1Cc1c2ccccc2cc2ccccc12 | 
5 |  |  | Cc1c(O)noc1CN | > 100

Row | Structure (SMILES) | Ki [1] [µM] | IC50 [2] [µM] | IC50 [3] [µM]
6 | CCc1c(O)noc1C1CCNCC1 | 6.3 |  | 
7 | Cc1c(O)noc1C1CCNCC1 | 10 |  | 
